Data: PMC4747340, “A new class of small molecule estrogen receptor-alpha antagonists that overcome anti-estrogen resistance” (Oncotarget, 2015)

Key:
Assay type in all cases: cell-based
BRCA1: ER complex = molecular target: T1, BRCA1: ER complex (Homo sapiens, UniProt P03372); experiment: immunoprecipitation-Western blotting of BRCA1:ER complex in MCF-7 cells
T1 construct: endogenous in cells; host or cells: MCF-7
Description: Figure 7 Compound 4631-P/1 disrupts the BRCA1/ER interaction in MCF-7 cells A., B. MCF-7 cells were incubated with the indicated with compound 4631-P/1 (1 or 20 μM) or vehicle only (DMSO) plus E2 (10 nM) for 24 hr; and the cells were harvested for immunoprecipitation of ER (A) or BRCA1 (B), followed by Western blotting for ER and BRCA1. As a negative control, cells treated with vehicle (DMSO) only were subjected to an IP with normal IgG. C. Unprecipitated lysates from cells treated as in panel A were subjected to Western blotting to detect BRCA1, ER, or actin (loading control). The data shown in each panel are representative of three independent experiments.
After the indicated treatments, cells were harvested, and whole cell extracts were prepared in IP buffer [10 mM Tris-HCl (pH 7.4), 150 mM NaCl, 1 mM EDTA, 1 mM EGTA, 1% Triton X-100, 0.5% IGEPAL CA-630 (Sigma), 10% glycerol, 1 mM sodium orthovanadate, and protease inhibitor cocktail (Santa Cruz)] [11, 18]. Each IP was carried out using 2-μg antibody and 500-μg extract protein. […] For each experiment, a control IP using an equal quantity of normal mouse or rabbit IgG (Santa Cruz) was carried out. […]

ER-β = molecular target: T2, ER-β (Homo sapiens, UniProt Q92731); experiment: E2-stimulated ER-β activity, ERE-TK-Luc reporter in transfected DU-145 cells
T2 construct: host or cells: DU-145
Description: (§1) Figure 12 Compound 35446 inhibits the activity of ER-β Subconfluent proliferating DU-145 cells in 24-well dishes were transfected overnight with the ER=α or ER=β expression vector plus the ERE-TK-Luc reporter plasmid (0.25 μg per plasmid/well), washed, and allowed to recover for several hours in fresh culture medium. The cells were then post-incubated for 24 hr to allow gene expression, after which they were treated ± E2 (10 nM) and ± compound 35446 (20 μM) (or compound B2 as a negative control) for 24 hr and assayed for luciferase activity. Luciferase activity is expressed relative to the no E2 control. Values are means ± SEMs of four replicate wells. The data shown in each panel are representative of three independent experiments.
To determine the effect of compound on ER-β activity, an ER- β expression plasmid (cat. no.: 35562, Addgene, Cambridge) was co-transfected into ER- DU-145 human prostate carcinoma cells along with the ERE-TK-Luc reporter plasmid (0.25 μg of each plasmid) and the cells were incubated overnight to allow gene expression. The cells were then treated ± E2 (10 nM) and ± the indicated compound for 24-hr, and harvested for luciferase assays as above.

ER-α = molecular target: T3, ER-α (Homo sapiens, UniProt P03372); experiment: E2-stimulated ER-α activity, ERE-TK-Luc reporter in transfected DU-145 cells; details: DU-145 transfected with ER-α, E2 10 nM, compound 20 μM, 24 hr
T3 construct: expressed in transfected cells; host or cells: DU-145
Description: as §1
Subconfluent cells in 24-well dishes were transfected overnight with 0.25 μg of each indicated vector plus the ERE-TK-Luc reporter in serum-free DMEM containing Lipofectamine2000 (Life Technologies, Washington, DC). Total transfected DNA was kept constant by addition of control vector. The cells were washed, incubated in phenol red-free DMEM containing 5% charcoal-stripped serum (obtained from the Tissue Culture Shared Resource) (0.2 ml/well) ± E2 (10 nM) ± the indicated compound for 24-hr, and harvested for luciferase assays. For each assay condition was tested in quadrupicate. […]

ER Ile326Ala = molecular target: T4, ER Ile326Ala (Homo sapiens, UniProt P03372, I326A); experiment: ER mutation analysis, ERE-TK-Luc reporter in transfected MDA-MB-231 cells; details: MDA-MB-231 transfected with mutant ER, E2 10 nM, 24 hr
T4 construct: expressed in transfected cells; host or cells: MDA-MB-231
Description: (§2) B., C. Panels B and C show a comparison of the ER interaction of one of our original series of compounds (A7) (B) and one new compounds (48693-K/1) (C). ER is represented by gray ribbon and its residues interacting with the compounds are drawn with wireframe and labeled. […] The hydrogen bond interaction with ARG 394 is shown in green line. […] The cells were harvested for luciferase assays. Luciferase values are expressed as a percent of the +E2 vehicle control and are means ± SEMs of four wells. The data shown in panels D to G are representative of three independent experiments.
(§3) Subconfluent cells in 24-well dishes were transfected overnight with 0.25 μg of each indicated vector plus the ERE-TK-Luc reporter in serum-free DMEM containing Lipofectamine2000 (Life Technologies, Washington, DC). Total transfected DNA was kept constant by addition of control vector. The cells were washed, incubated in phenol red-free DMEM containing 5% charcoal-stripped serum (obtained from the Tissue Culture Shared Resource) (0.2 ml/well) ± E2 (10 nM) ± the indicated compound for 24-hr, and harvested for luciferase assays. For each assay condition was tested in quadrupicate. To monitor the transfection efficiency, cultures were co-transfected with plasmid pRSV-β-gal (Promega, Madison, WI) to visualize transfected cells by X-gal staining.

ER Pro324Ala = molecular target: T5, ER Pro324Ala (Homo sapiens, UniProt P03372, P324A); experiment: as above; details: MDA-MB-231 transfected with mutant ER, E2 10 nM, 24 hr
T5 construct: expressed in transfected cells; host or cells: MDA-MB-231
Description: as §2, §3

ER Glu323Ala = molecular target: T6, ER Glu323Ala (Homo sapiens, UniProt P03372, E323A); experiment: as above; details: MDA-MB-231 transfected with mutant ER, E2 10 nM, 24 hr
T6 construct: expressed in transfected cells; host or cells: MDA-MB-231
Description: as §2, §3

ER Glu353Ala = molecular target: T7, ER Glu353Ala (Homo sapiens, UniProt P03372, E353A); experiment: as above; details: MDA-MB-231 transfected with mutant ER, E2 10 nM, 24 hr
T7 construct: expressed in transfected cells; host or cells: MDA-MB-231
Description: as §2, §3

ER Lys449Ala = molecular target: T8, ER Lys449Ala (Homo sapiens, UniProt P03372, K449A); experiment: as above; details: MDA-MB-231 transfected with mutant ER, E2 10 nM, 24 hr
T8 construct: expressed in transfected cells; host or cells: MDA-MB-231
Description: as §2, §3

ER Leu327Ala = molecular target: T9, ER Leu327Ala (Homo sapiens, UniProt P03372, L327A); experiment: as above; details: MDA-MB-231 transfected with mutant ER, E2 10 nM, 24 hr
T9 construct: expressed in transfected cells; host or cells: MDA-MB-231
Description: as §2, §3

ER Arg394Ala = molecular target: T10, ER Arg394Ala (Homo sapiens, UniProt P03372, R394A); experiment: as above; details: MDA-MB-231 transfected with mutant ER, E2 10 nM, 24 hr
T10 construct: expressed in transfected cells; host or cells: MDA-MB-231
Description: as §2, §3

T1 sequence (P03372 whole entry, one chain of several): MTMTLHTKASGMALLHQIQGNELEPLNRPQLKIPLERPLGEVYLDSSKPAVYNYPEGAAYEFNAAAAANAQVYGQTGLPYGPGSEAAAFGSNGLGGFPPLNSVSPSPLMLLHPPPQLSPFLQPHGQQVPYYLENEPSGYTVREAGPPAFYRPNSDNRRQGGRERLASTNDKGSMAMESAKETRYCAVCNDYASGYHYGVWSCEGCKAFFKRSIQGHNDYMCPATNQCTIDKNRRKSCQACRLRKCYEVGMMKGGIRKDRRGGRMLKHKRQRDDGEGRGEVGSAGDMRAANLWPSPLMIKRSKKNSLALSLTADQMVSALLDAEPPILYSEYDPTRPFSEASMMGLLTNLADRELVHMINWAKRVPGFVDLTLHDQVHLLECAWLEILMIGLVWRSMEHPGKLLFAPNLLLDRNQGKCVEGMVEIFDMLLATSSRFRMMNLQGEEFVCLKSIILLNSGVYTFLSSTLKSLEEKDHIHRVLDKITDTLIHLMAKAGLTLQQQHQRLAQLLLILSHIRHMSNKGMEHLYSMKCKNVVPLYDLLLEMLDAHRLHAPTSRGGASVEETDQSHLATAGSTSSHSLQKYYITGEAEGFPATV
T2 sequence (Q92731 whole entry): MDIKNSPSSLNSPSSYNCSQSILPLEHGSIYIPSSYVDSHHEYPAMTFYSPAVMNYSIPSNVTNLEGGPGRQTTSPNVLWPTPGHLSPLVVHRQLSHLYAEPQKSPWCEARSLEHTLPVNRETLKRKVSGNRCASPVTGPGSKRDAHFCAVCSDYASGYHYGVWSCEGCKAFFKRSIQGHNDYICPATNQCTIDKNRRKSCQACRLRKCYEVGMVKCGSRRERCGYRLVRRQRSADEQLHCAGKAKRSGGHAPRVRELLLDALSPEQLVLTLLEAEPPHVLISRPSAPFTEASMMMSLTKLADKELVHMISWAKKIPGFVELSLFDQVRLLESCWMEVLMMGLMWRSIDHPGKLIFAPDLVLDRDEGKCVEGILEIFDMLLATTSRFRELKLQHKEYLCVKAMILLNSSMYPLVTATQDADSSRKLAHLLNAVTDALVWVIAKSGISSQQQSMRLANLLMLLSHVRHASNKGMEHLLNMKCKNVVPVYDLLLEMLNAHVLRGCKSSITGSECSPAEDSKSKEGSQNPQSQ
T4 sequence (P03372 whole entry I326A): as the sequence (P03372 whole entry, one chain of several) above, with I326A counted along it
T6 sequence (P03372 whole entry E323A): as the sequence (P03372 whole entry, one chain of several) above, with E323A counted along it
T9 sequence (P03372 whole entry L327A): as the sequence (P03372 whole entry, one chain of several) above, with L327A counted along it
T3 sequence (P03372 whole entry): as the sequence (P03372 whole entry, one chain of several) above
T8 sequence (P03372 whole entry K449A): as the sequence (P03372 whole entry, one chain of several) above, with K449A counted along it
T5 sequence (P03372 whole entry P324A): as the sequence (P03372 whole entry, one chain of several) above, with P324A counted along it
T7 sequence (P03372 whole entry E353A): as the sequence (P03372 whole entry, one chain of several) above, with E353A counted along it
T10 sequence (P03372 whole entry R394A): as the sequence (P03372 whole entry, one chain of several) above, with R394A counted along it

| SMILES | dissociation of the BRCA1: ER complex (BRCA1: ER complex; MCF-7, E2 10 nM, compound 0, 1, 20 μM, 24 hr, IP-Western) | effect on total levels of ER or BRCA1 (BRCA1: ER complex; MCF-7, Western blotting of non-precipitated lysates) | inhibition at 20 µM (ER-β; DU-145, read-out: inhibition of E2-stimulated ER-β activity) [%] | IC50 (ER-β; DU-145 transfected with ER-β, E2 10 nM, 24 hr, read-out: IC50 for inhibition of ER-β activity) [µM] | inhibition at 20 µM (ER-α) [%] | IC50 (ER Ile326Ala) [µM] | IC50 (ER Pro324Ala) [µM] | IC50 (ER Glu323Ala) [µM] | IC50 (ER Glu353Ala) [µM] | IC50 (ER Lys449Ala) [µM] | IC50 (ER Leu327Ala) [µM] | IC50 (ER Arg394Ala) [µM] |
| --- | --- | --- | --- | --- | --- | --- | --- | --- | --- | --- | --- | --- |
| O=C(c1cc(Br)ccc1O)c1cc(Br)ccc1O [4631-P/1] | concentration-dependent dissociation of ER and BRCA1 | no effect | – | – | – | – | – | – | – | – | – | – |
| O=C(CC(c1ccccc1)N1CCCCC1)c1ccccc1 (stereo not drawn) [35446-L/1, 1,3-diphenyl-3-(piperidin-1-yl)propan-1-one] | – | – | ~67 | 2 | > 90 | 4 | > 15 | 0.9 | > 10 | > 15 | 0.9 | > 15 |
